From US5514654A, “N-acyldipeptides, processes for the preparation thereof and pharmaceutical compositions containing the same” (priority 1990, dated 1996)
Values joined by “and” are separate entries in the source; they are usually repeats but may differ in a detail not shown here. Equal entries are not always repeated.

Columns and labels:
peritoneal macrophages [1] = assay: Activation of peritoneal macrophages with additional in vitro stimulation with PMA (ferricytochrome C reduction); format: in vivo, female HAN-NmRI strain mice; conditions: for increase of macrophage activity: versus control
Description: (§1) Immunological studies were performed on female HAN-NmRI strain mice of 3-4 weeks, weighing from 18-21 g.
(§2) In tests 1.1 to 1.5, the animals were first administered the Brewer's thioglycolate medium by i.p. injection, which was followed after 6 hours by the injection of 0.5 ml of a solution containing 25 μg, 2.5 μg and 0.25 μg respectively of N-acetyl-muramyl-L-alanyl-D-isoglutamine (muramyl dipeptide, MDP) or of N-(7-oxooctanoyl)-L-alanyl-D-isoglutamine (compound 1, Example 19). Equal doses were administered to the animals on days 2 and 3. On day 4 the animals were sacrificed and the spleen and the peritoneal macrophages were isolated.
(§3) The peritoneal cavity of the animals was rinsed with 4 ml of ice-cold RPMI 1640 medium. The cytolysis of erythrocytes was effected with 0.2% NaCl. The remaining cells were washed twice in a cooled centrifuge at 4° C. and 1500 rpm for 5 minutes with ice-cold RPMI 1640 medium. The cells were re-suspended and the concentration was adjusted to 1.5×10^6/ml. The cell suspension was distributed among the flat bottom wells of a microtitration plate (T grade, Nunc, Denmark). After incubating for 2 hours at 37° C., 5% CO2 and 95% humidity, the wells were rinsed with warm RPMI 1640 medium and the adhering macrophages were used for testing.
(§4) After incubating for 90 minutes at 37° C., 5% CO2 and 95% humidity, the absorbance was measured at the wavelength of 570 nm.
(§5) The results are shown in Table 2 as the difference in the absorbance of the test sample and of the blank, calculated for 1 mg of cell protein.

[2] = tested on: splenic lymphocytes (lymphocytes T); assay: Blast transformation of lymphocytes by mithogens (concanavalin A, tritium labelled thymidine incorporation); format: in vivo, female HAN-NmRI strain mice; conditions: for Amount of active thymidine incoporated in lymphocyte DNA (cpm), x ± s.e.m: lymphocytes stimulated in vitro with concanavalin A
Description: as §1, §2
Isolated splenic lymphocytes were prepared in a concentration of 1×10^6 /ml in the RPMI 1640 medium, to which there were added 10% of foetal calf serum (FCS) (Sera-Lab, Great Britain), 1 ml of 200 mM L-glutamine solution and 1 ml of an antibiotic solution (100 U/ml of penicillin and 100 μg/ml of streptomycin) for 100 ml of complete medium. To each flat bottom well of a microtitration plate (T grade, Nunc, Denmark) 100 μl of the cell suspension were distributed. The cells were stimulated in vitro by adding concanavalin A (con A) (Pharmacia, Sweden) at respective concentrations of 16, 8, and 4 μg/ml. Control lymphocyte cultures were grown in basal medium only. The cells were then incubated at 37° C., 5% CO2 and 95% humidity for 2 days, followed by the addition of tritium labelled thymidine. After 16 hours the samples were prepared for the measurement in a β-counter. The results were expressed as incorporation indexes with respect to the control group of the animals.

[3] = tested on: splenic lymphocytes B and lymphocytes T; assay: Determination of the number of lymphocytes B and lymphocytes T; format: in vivo, female HAN-NmRI strain mice; conditions: 25, 2.5 and 0.25 μg by injection on 3 consecutive days after Brewer's thioglycolate medium i.p.; spleen isolated day 4
Description: as §1, §2
To the isolated splenic lymphocytes there were added fluorescein isothiocyanate labelled antimouse antibodies (for the determination of lymphocytes B) and anti-Thy 1 monoclonal antibodies (for the determination of lymphocytes T) respectively. After incubation and rinsing with RPMI 1640 medium (Gibco, Great Britain), the lymphocytes were counted by fluorescence microscopy.

Fibrosarcoma SA-1 = assay: Antitumour activity, tumour growth delay; format: in vivo, A/J strain mice; conditions: for Time needed for the tumour growth to the volume of 150 mm^3, Number of days (± SD) / Growth delay (± SD): 5 doses; for Time needed for the tumour growth to the volume of 150 mm^3, Number of days (± SD): control 5.5 ± 0.8; for Growth delay (± SD): versus control group
Description: The studies were performed on A/J strain mice (Institute Rudjer Boskovic, Zagreb, Yugoslavia) of 8 to 10 weeks. All animals used in the same experiment were of the same sex and age.
Fibrosarcoma SA-1 was used as the experimental tumour model. Tumorous cells were obtained from the ascitic form of the SA-1 tumour of the syngeneic A/J mouse. They were implanted into animals dorsilaterally by s.c. injection of 5×10^5 live tumour cells. The testing was started after the tumours had grown to a volume of 35 mm^3. The test substance was injected i.p. on five consecutive days in a dose of 2.5 or 25 μg. The growth of the tumours was monitored by measuring the diameters and the thickness of the tumours. The tumour volumes were calculated according to the formula 0.523×a×b×c (a, b and c being the tumour diameters).
The delay in the growth of each individual tumour was obtained by deducting the relevant time of growth of the tumour in the control group from the time needed for the growth of the tumour to reach the volume of 150 mm^3.

[4] = Pyrogenous activity according to the method of USP XXII; format: in vivo
Description: The pyrogenous activity was determined according to the method of USP XXII.

peritoneal macrophages [5] = assay: Activation of peritoneal macrophages without additional in vitro stimulation with PMA (ferricytochrome C reduction); format: in vivo, female HAN-NmRI strain mice; conditions: for increase of macrophage activity: versus control
Description: as §1, §2, §3, §4, §5

[6] = Toxicity, average lethal dose (LD50); format: in vivo
lymphocytes B = assay: Determination of haemolytic plaques for the assessment of the maturation of lymphocytes B; format: in vivo, female HAN-NmRI strain mice; conditions: 1 μg/mouse one day after sheep erythrocytes i.p.; control 86±12.7
Description: as §1
A 1% suspension of sheep erythrocytes (Institute of Microbiology, Faculty of Medicine, Ljubljana, Yugoslavia) in physiological saline was used for the immunisation. First, individual mice were administered 0.2 ml of this suspension by i.p. injection, followed next day by 0.1 ml (1 μg/mouse) of the test substance. The immunisation was completed on the fifth day after the administration of sheep erythrocytes and the mice were sacrificed.
Their spleens were removed and homogenized in Parker 199 Medium with added amminoacids, streptomycin and sodium carbonate (Torlak, Beograd, Yugoslavia). The lymphocytes were separated on the Ficol Separating Medium (Pharmacia, Uppsala, Sweden). After repeated rinsing with Parker 199 Medium, the cells were resuspended in RPMI 1640 nutrient medium with added 10% of fetal calf serum and streptomycin. To 50 μl of the cell suspension, 450 μl of trypan blue were added and the cells were counted in Neubauer's chamber. The number of lymphocytes per ml of the cell suspension was calculated. […] After the completion of the incubation, the plaques were counted under microscope.
The number of plaques per 1×10^6 cells was calculated according to the following equations: [formula]

peritoneal macrophages [7] = assay: Determination of the number of macrophages; format: in vivo, female HAN-NmRI strain mice; conditions: 25, 2.5 and 0.25 μg on 3 consecutive days; peritoneal cavity washings three days after thioglycolate stimulation
Description: as §1, §2
The number of macrophages in the peritoneal cavity washings was determined three days after the stimulation with Brewer's thioglycolate medium. The cells were suspended in ice-cold RPMI 1640 medium, to which trypan blue was added, and counted in Neubauer's chamber.

[8] = daily dose 0.25 μg for 3 consecutive days
[9] = daily dose 2.5 μg for 3 consecutive days
[10] = daily dose 25 μg for 3 consecutive days

Q: Which “Difference in absorbancies of the test sample and of the blank per mg of cell protein, x ± s.e.m” value (“Difference … per mg of cell protein, x ± s.e.m” for short) (peritoneal macrophages [1]; [8]) does the source give for `CC(=O)CCCCCC(=O)N[C@@H](C)C(=O)N[C@H](CCC(=O)O)C(N)=O` [Compound 1, N-(7-oxooctanoyl)-L-alanyl-D-isoglutamine] here?
A: 1480 ± 336

Q: What about the “Difference … per mg of cell protein, x ± s.e.m” value (peritoneal macrophages [1]; [9]) of the same molecule?
A: 1630 ± 297

Q: What about the “Difference … per mg of cell protein, x ± s.e.m” value (peritoneal macrophages [1]; [10]) of the same molecule?
A: 2200 ± 177

Q: What about the “increase of macrophage activity” value (peritoneal macrophages [1]; dose 0.25 μg (lowest dose)) of the same molecule?
A: about 50%

Q: What about the “increase of macrophage activity” value (peritoneal macrophages [1]; dose 2.5 μg) of the same molecule?
A: about 60%

Q: What about the “increase of macrophage activity” value (peritoneal macrophages [1]; dose 25 μg) of the same molecule?
A: about 120%

Q: And the “difference in macrophage activation between muramyl dipeptide and compound 1” value (peritoneal macrophages [1]; doses of 2.5 and 25 μg, p>0.05)?
A: no statistically significant difference

Q: And the “Amount of active thymidine incoporated in lymphocyte DNA (cpm), x ± s.e.m” value (from here on “Amount of active thymidine incoporated”) [2, 8]?
A: 16860 ± 5210 cpm

Q: What about the “Amount of active thymidine incoporated” value [2, 9] of the same molecule?
A: 19080 ± 5470 cpm

Q: And the “Amount of active thymidine incoporated” value [2, 10]?
A: 16380 ± 2950 cpm

Q: And the “immunomodulatory effect in lymphocytes T compared with MDP” value ([2]; dose of 25 μg)?
A: statistically greater

Q: What about the “increase of the blastic activity of lymphocytes T” value ([2]; dose of 25 μg, concanavalin A, versus control, p<0.05) of the same molecule?
A: about 70%

Q: What about the “number of splenic lymphocytes B” value [3] of the same molecule?
A: Neither the number of splenic lymphocites B nor of lymphocytes T was altered to a statistically significant extent

Q: And the “number of splenic lymphocytes T” value [3]?
A: Neither the number of splenic lymphocites B nor of lymphocytes T was altered to a statistically significant extent

Q: And the “Time needed for the tumour growth to the volume of 150 mm^3, Number of days (± SD)” value (Fibrosarcoma SA-1; 2.5 μg daily i.p.)?
A: 7.3 ± 1.5 days

Q: And the “Growth delay (± SD)” value (Fibrosarcoma SA-1; 2.5 μg daily i.p.)?
A: 1.8 ± 0.5

Q: What about the “Time needed for the tumour growth to the volume of 150 mm^3, Number of days (± SD)” value (Fibrosarcoma SA-1; 25.0 μg daily i.p.) of the same molecule?
A: 7.0 ± 1.7 days

Q: And the “Growth delay (± SD)” value (Fibrosarcoma SA-1; 25.0 μg daily i.p.)?
A: 1.5 ± 0.5

Q: And the “difference in antitumour activity between the higher and the lower dose” value (Fibrosarcoma SA-1; 25 μg versus 2.5 μg)?
A: no statistically significant difference

Q: And the “antitumour activity in comparison to the control” value (Fibrosarcoma SA-1; dose of 2.5 μg and dose of 25 μg)?
A: moderate and statistically significant

Q: And the pyrogenous activity [4]?
A: did not show any pyrogenous activity

Q: What about the “dose dependence of macrophage activation” value (peritoneal macrophages [5]; 0.25 to 25 μg) of the same molecule?
A: dose-dependent

Q: And the “Difference … per mg of cell protein, x ± s.e.m” value (peritoneal macrophages [5]; daily dose 0.25 μg)?
A: 273 ± 40

Q: What about the “Difference … per mg of cell protein, x ± s.e.m” value (peritoneal macrophages [5]; daily dose 2.5 μg) of the same molecule?
A: 387 ± 56

Q: What about the “Difference … per mg of cell protein, x ± s.e.m” value (peritoneal macrophages [5]; daily dose 25 μg) of the same molecule?
A: 518 ± 20

Q: What about the “increase of macrophage activity” value (peritoneal macrophages [5]; dose 0.25 μg) of the same molecule?
A: did not increase the activity

Q: What about the “increase of macrophage activity” value (peritoneal macrophages [5]; dose 2.5 μg) of the same molecule?
A: 40%

Q: And the “increase of macrophage activity” value (peritoneal macrophages [5]; dose 25 μg)?
A: 90%

Q: What about the “difference in macrophage activation between muramyl dipeptide and compound 1” value (peritoneal macrophages [5]; doses of 2.5 and 25 μg, p>0.05) of the same molecule?
A: no statistically significant difference

Q: What about the “factor by which the immunologically effective dose is lower than LD50” value ([6]; all described immunological effects) of the same molecule?
A: at least 2000 times

Q: What about the “average lethal dose (LD50)” value ([6]; i.v. application, male mice) of the same molecule?
A: > 250 mg/kg

Q: What about the “number of plaques (per 1×10^6 cells), x±s.e.m” value (lymphocytes B) of the same molecule?
A: 170±39.9 and 245±75.5

Q: And the “number of peritoneal macrophages” value (peritoneal macrophages [7])?
A: not altered to a statistically significant extent
